Assays:
Assay type in all cases: in vivo
[1] = tested on: Viola tricolor; assay: Post-emergence herbicidal action in greenhouse against VIOTR; conditions: visual rating after ca. 3 weeks
Description: (§1) Biologische Beispiele: • Die folgenden Abkürzungen werden für die in den folgenden Tabellen aufgeführten Kultur- und Schadpflanzen verwendet: ABUTH: Abutilon theophrasti ALOMY: Alopecurus myosuroides AMARE: Amaranthus retroflexus BRSNS: Brassica napus DIGSA: Digitaria sanguinalis ECHCG: Echinochloa crus-galli GLXMA: Glycine max KCHSC: Kochia scoparia LOLRI: Lolium rigidum MATIN: Matricaria inodora ORYZA: Oryza sativa PHPBU: Pharbitis purpurea POLCO: Polygonum convolvulus SETVI: Setaria viridis VERPE: Veronica persica VIOTR: Viola tricolor TRZAS: Triticum aestivum ZEAMX: Zea mays • A. Herbizide Wirkung im Nachauflauf
(§2) Samen von mono- bzw. dikotylen Unkrautpflanzen wurden in Kunststoff- oder Holzfasertöpfen in sandigem Lehmboden ausgelegt, mit Erde abgedeckt und im Gewächshaus unter kontrollierten Wachstumsbedingungen angezogen. 2 bis 3 Wochen nach der Aussaat wurden die Versuchspflanzen im Einblattstadium behandelt. Die in Form von benetzbaren Pulvern (WP) oder als Emulsionskonzentrate (EC) formulierten erfindungsgemäßen Verbindungen wurden dann als wässrige Suspension bzw. Emulsion unter Zusatz von 0,5% Additiv mit einer Wasseraufwandmenge von umgerechnet 600 l/ha auf die grünen Pflanzenteile gesprüht. Nach ca. 3 Wochen Standzeit der Versuchspflanzen im Gewächshaus, unter optimalen Wachstumsbedingungen, wurde die Wirkung der Präparate visuell im Vergleich zu unbehandelten Kontrollen bonitiert. Beispielsweise bedeutet 100% Wirkung = Pflanzen sind abgestorben, 0% Wirkung = wie Kontrollpflanzen.
(§3) In den nachstehenden Tabellen A1 bis A11 sind die Wirkungen ausgewählter Verbindungen der allgemeinen Formel (I) gemäß der Tabelle 1 auf verschiedene Schadpflanzen und einer Aufwandmenge entsprechend 20 g/ha und niedriger, die gemäß zuvor genannter Versuchsvorschrift erhalten wurden, dargestellt. Tabelle A1a: Nachauflaufwirkung bei 1,25 g/ha gegen ABUTH in %

[2] = tested on: Setaria viridis; assay: Post-emergence herbicidal action in greenhouse against SETVI; conditions: visual rating after ca. 3 weeks
Description: as §1, §2, §3

[3] = tested on: Triticum aestivum; assay: Post-emergence action on crop plants in greenhouse, TRZAS; conditions: crop plant, visual rating after ca. 3 weeks, 100% = plants dead, 0% = like control plants
Description: as §1
as §2, with “Kulturpflanzen” for “Unkrautpflanzen”
(§4) In den nachstehenden Tabellen B1 bis B4 sind die Wirkungen ausgewählter Verbindungen der allgemeinen Formel (I) gemäß der Tabelle 1 auf verschiedene Kulturpflanzen und einer Aufwandmenge entsprechend 20 g/ha und niedriger, die gemäß zuvor genannter Versuchsvorschrift erhalten wurden, dargestellt. Tabelle B1a: Nachauflaufwirkung bei 1,25 g/ha gegen ZEAMX in %

[4] = tested on: Digitaria sanguinalis; assay: Post-emergence herbicidal action in greenhouse against DIGSA; conditions: visual rating after ca. 3 weeks
Description: as §1, §2, §3

[5] = tested on: Amaranthus retroflexus; assay: Post-emergence herbicidal action in greenhouse against AMARE; conditions: post-emergence spray, 600 l/ha water, visual rating after ca. 3 weeks vs untreated controls, 100% = plants dead, 0% = like control plants
Description: as §1, §2, §3

[6] = tested on: Polygonum convolvulus; assay: Post-emergence herbicidal action in greenhouse against POLCO; conditions: visual rating after ca. 3 weeks
Description: as §1, §2, §3

[7] = tested on: Zea mays; assay: Post-emergence action on crop plants in greenhouse, ZEAMX; conditions: crop plant, 100% = plants dead, 0% = like control plants
Description: as §1
as §2, with “Kulturpflanzen” for “Unkrautpflanzen”
as §4

[8] = tested on: Matricaria inodora; assay: Post-emergence herbicidal action in greenhouse against MATIN; conditions: visual rating after ca. 3 weeks
Description: as §1, §2, §3

[9] = tested on: Abutilon theophrasti; assay: Post-emergence herbicidal action in greenhouse against ABUTH; conditions: post-emergence spray, 600 l/ha water, visual rating after ca. 3 weeks vs untreated controls, 100% = plants dead, 0% = like control plants
Description: as §1, §2, §3

[10] = tested on: Veronica persica; assay: Post-emergence herbicidal action in greenhouse against VERPE; conditions: visual rating after ca. 3 weeks
Description: as §1, §2, §3

[11] = tested on: Pharbitis purpurea; assay: Post-emergence herbicidal action in greenhouse against PHBPU; conditions: visual rating after ca. 3 weeks
Description: as §1, §2, §3

[12] = tested on: Oryza sativa; assay: Post-emergence action on crop plants in greenhouse, ORYZA; conditions: crop plant, visual rating after ca. 3 weeks, 100% = plants dead, 0% = like control plants
Description: as §1
as §2, with “Kulturpflanzen” for “Unkrautpflanzen”
as §4

[13] = tested on: Alopecurus myosuroides; assay: Post-emergence herbicidal action in greenhouse against ALOMY; conditions: post-emergence spray, 600 l/ha water, visual rating after ca. 3 weeks vs untreated controls, 100% = plants dead, 0% = like control plants
Description: as §1, §2, §3

[14] = tested on: Lolium rigidum; assay: Post-emergence herbicidal action in greenhouse against LOLRI; conditions: 20 g/ha; post-emergence spray, 600 l/ha water; visual rating after ca. 3 weeks vs untreated controls; 100% = plants dead, 0% = like control plants
Description: as §1, §2, §3

[15] = 1,25 g/ha, post-emergence, visual rating after ca. 3 weeks

SMILES | Nachauflaufwirkung gegen VIOTR ([1]; 1,25 g/ha) | Nachauflaufwirkung gegen VIOTR ([1]; 5 g/ha) | Nachauflaufwirkung gegen VIOTR ([1]; 20 g/ha) | Nachauflaufwirkung gegen SETVI ([2]; 1,25 g/ha) | Nachauflaufwirkung gegen SETVI ([2]; 5 g/ha) | Nachauflaufwirkung gegen SETVI ([2]; 20 g/ha) | Nachauflaufwirkung gegen TRZAS ([3]; 1,25 g/ha) | Nachauflaufwirkung gegen TRZAS ([3]; 5 g/ha) | Nachauflaufwirkung gegen DIGSA ([4]; 5 g/ha) | Nachauflaufwirkung gegen DIGSA ([4]; 20 g/ha) | Nachauflaufwirkung gegen AMARE ([5]; 1,25 g/ha) | Nachauflaufwirkung gegen AMARE ([5]; 5 g/ha) | Nachauflaufwirkung gegen AMARE ([5]; 20 g/ha) | Nachauflaufwirkung gegen POLCO ([6]; 20 g/ha) | Nachauflaufwirkung gegen MATIN ([8]; 20 g/ha) | Nachauflaufwirkung gegen ABUTH ([9]; 1,25 g/ha) | Nachauflaufwirkung gegen ABUTH ([9]; 5 g/ha) | Nachauflaufwirkung gegen ABUTH ([9]; 20 g/ha) | Nachauflaufwirkung gegen VERPE ([10]; 5 g/ha) | Nachauflaufwirkung gegen VERPE ([10]; 20 g/ha) | other results
COCCOC(=O)C(C)(C)OC(=O)c1cc(-n2c(=O)cc(C(F)(F)F)n(N)c2=O)c(F)cc1Cl [I.1-1] | 80% | 100% | 100% | 100% | 100% | 100% | 0% | 0% | 100% | 100% | 100% | 100% | 100% | 100% | 100% | 90% | 100% | 100% | 100% | 100% | Nachauflaufwirkung gegen POLCO ([6]; 5 g/ha): 100%; Nachauflaufwirkung gegen ZEAMX [7, 15]: 0%; Nachauflaufwirkung gegen MATIN ([8]; 5 g/ha): 100%; Nachauflaufwirkung gegen VERPE ([10]; 1,25 g/ha): 100%; Nachauflaufwirkung gegen PHBPU ([11]; 1,25 g/ha): 100%; Nachauflaufwirkung gegen PHBPU ([11]; 5 g/ha): 100%; Nachauflaufwirkung gegen PHBPU ([11]; 20 g/ha): 100%; Nachauflaufwirkung gegen ORYZA ([12]; 1,25 g/ha): 0%; Nachauflaufwirkung gegen ALOMY ([13]; 5 g/ha): 80%; Nachauflaufwirkung gegen ALOMY ([13]; 20 g/ha): 90%; Nachauflaufwirkung gegen LOLRI [14]: 90%
CC(C)(OC(=O)c1cc(-n2c(=O)cc(C(F)(F)F)n(N)c2=O)c(F)cc1Cl)C(=O)OCC#N [I.1-176, 1-(Cyanmethoxy)-2-methyl-1-oxopropan-2-yl-5-[3-amino-2,6-dioxo-4-(trifluormethyl)-3,6-dihydropyrimidin-1(2H)-yl]-2-chlor-4-fluorbenzoat] | 90% | 100% | 100% | 100% | 100% | 100% | 0% | 20% | 100% | 100% | 100% | 100% | 100% | 100% | 100% | 100% | 100% | 100% | 100% | 100% | Nachauflaufwirkung gegen POLCO ([6]; 5 g/ha): 100%; Nachauflaufwirkung gegen MATIN ([8]; 5 g/ha): 100%; Nachauflaufwirkung gegen VERPE ([10]; 1,25 g/ha): 80%; Nachauflaufwirkung gegen PHBPU ([11]; 1,25 g/ha): 90%; Nachauflaufwirkung gegen PHBPU ([11]; 5 g/ha): 100%; Nachauflaufwirkung gegen PHBPU ([11]; 20 g/ha): 100%; Nachauflaufwirkung gegen ORYZA ([12]; 1,25 g/ha): 20%; Nachauflaufwirkung gegen ALOMY ([13]; 20 g/ha): 100%; Nachauflaufwirkung gegen LOLRI [14]: 80%
CC(C)(OC(=O)c1cc(-n2c(=O)cc(C(F)(F)F)n(N)c2=O)ccc1Cl)C(=O)OCc1ccccn1 [I.2-286] | 100% | 100% | 100% | 90% | 100% | 100% | 0% | 0% | 80% | 100% | 80% | 100% | 100% | 100% | 100% | 80% | 100% | 100% | 100% | 100% | Nachauflaufwirkung gegen TRZAS ([3]; 20 g/ha): 10%; Nachauflaufwirkung gegen POLCO ([6]; 5 g/ha): 100%; Nachauflaufwirkung gegen ZEAMX [7, 15]: 20%; Nachauflaufwirkung gegen PHBPU ([11]; 1,25 g/ha): 100%; Nachauflaufwirkung gegen PHBPU ([11]; 5 g/ha): 100%; Nachauflaufwirkung gegen PHBPU ([11]; 20 g/ha): 100%; Nachauflaufwirkung gegen ORYZA ([12]; 1,25 g/ha): 0%; Nachauflaufwirkung gegen ORYZA ([12]; 5 g/ha): 0%
C=CCOC(=O)C(C)(C)OC(=O)c1cc(-n2c(=O)cc(C(F)(F)F)n(N)c2=O)ccc1Cl [I.2-471] | 100% | 100% | 100% | 100% | 100% | 100% | 0% | 0% | 100% | 100% | 100% | 100% | 100% | 100% | 100% | 90% | 100% | 100% | 100% | 100% | Nachauflaufwirkung gegen TRZAS ([3]; 20 g/ha): 10%; Nachauflaufwirkung gegen ZEAMX [7, 15]: 20%; Nachauflaufwirkung gegen ZEAMX ([7]; 5 g/ha, post-emergence spray, 600 l/ha water, visual rating after ca. 3 weeks vs untreated controls): 20%; Nachauflaufwirkung gegen MATIN ([8]; 5 g/ha): 90%; Nachauflaufwirkung gegen VERPE ([10]; 1,25 g/ha): 100%; Nachauflaufwirkung gegen PHBPU ([11]; 1,25 g/ha): 100%; Nachauflaufwirkung gegen PHBPU ([11]; 5 g/ha): 100%; Nachauflaufwirkung gegen PHBPU ([11]; 20 g/ha): 100%; Nachauflaufwirkung gegen ORYZA ([12]; 1,25 g/ha): 0%; Nachauflaufwirkung gegen ALOMY ([13]; 20 g/ha): 80%

From EP4230620A1, “SUBSTITUTED N-AMINO-N-BENZOIC ACID URACILS, THEIR SALTS AND USE OF SAID COMPOUNDS AS HERBICIDAL AGENTS” (Bayer Aktiengesellschaft, priority 2022, dated 2023)
